Patent publication US20080261994A1, “CYCLOPROPANE COMPOUNDS AND PHARMACEUTICAL USE THEREOF” (Japan Tobacco Inc., priority 2003, published 2008)
Like-named read-outs stand apart in the source and are kept apart here.

Assays:
Format in all cases: biochemical
aggrecanase-1 = target: T1, aggrecanase-1 (Homo sapiens, UniProt O75173); experiment: Aggrecanase-1 inhibitory action (Particle Assay, GAG release from aggrecan-containing polyacrylamide particles)
T1 sequence (O75173 213-837): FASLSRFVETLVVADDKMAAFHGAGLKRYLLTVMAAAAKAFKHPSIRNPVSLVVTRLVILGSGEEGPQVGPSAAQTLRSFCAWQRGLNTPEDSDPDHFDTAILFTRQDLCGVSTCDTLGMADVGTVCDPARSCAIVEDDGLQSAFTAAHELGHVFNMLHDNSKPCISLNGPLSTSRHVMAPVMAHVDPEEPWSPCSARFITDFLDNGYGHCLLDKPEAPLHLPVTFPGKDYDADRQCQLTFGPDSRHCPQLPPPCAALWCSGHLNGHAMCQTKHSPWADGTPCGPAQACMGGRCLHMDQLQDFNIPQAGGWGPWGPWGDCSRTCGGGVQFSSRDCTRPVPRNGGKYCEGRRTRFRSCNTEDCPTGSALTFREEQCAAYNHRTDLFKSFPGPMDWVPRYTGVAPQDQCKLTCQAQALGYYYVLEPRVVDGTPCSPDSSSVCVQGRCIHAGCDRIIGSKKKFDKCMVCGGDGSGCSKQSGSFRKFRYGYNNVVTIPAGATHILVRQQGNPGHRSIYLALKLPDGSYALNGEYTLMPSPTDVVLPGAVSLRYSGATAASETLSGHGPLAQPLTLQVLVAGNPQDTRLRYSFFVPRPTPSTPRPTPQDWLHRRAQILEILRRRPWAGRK
Procedure, shortened: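 Readout was dimethylmethylene blue absorbance (595 nm) of glycosaminoglycan liberated into supernatant, calibrated with whale chondroitin sulfate. Substrate was aggrecan in polyacrylamide particles, digested 15 h at 37° C in Tris-HCl; TC50 (μM) derived from inhibition relative to no-enzyme and no-inhibitor controls.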

Recombinant Human MMP-13 = target: T2, Recombinant Human MMP-13 (Homo sapiens, UniProt P45452); experiment: MMP-13 inhibitory activity (MMP-13 specific fluorescent substrate with quencher)
T2 construct: purchased R&D systems 511-MM
Procedure, shortened: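 IC50 (μM) derived from % inhibition, normalised to wells without enzyme and without inhibitor, fluorescence read at 325/405 nm. Enzyme and compound preceded addition of the quenched 7-MCA…DPA substrate; Tris-HCl buffer, 25 °C for 1 h, acetic-acid stop.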

MMP-1 = target: T3, MMP-1 (Homo sapiens, UniProt P03956); experiment: MMP-1 inhibitory action (Type I collagen Activity Measurement kit, FITC-labeled collagen type I)
T3 sequence (P03956 100-469): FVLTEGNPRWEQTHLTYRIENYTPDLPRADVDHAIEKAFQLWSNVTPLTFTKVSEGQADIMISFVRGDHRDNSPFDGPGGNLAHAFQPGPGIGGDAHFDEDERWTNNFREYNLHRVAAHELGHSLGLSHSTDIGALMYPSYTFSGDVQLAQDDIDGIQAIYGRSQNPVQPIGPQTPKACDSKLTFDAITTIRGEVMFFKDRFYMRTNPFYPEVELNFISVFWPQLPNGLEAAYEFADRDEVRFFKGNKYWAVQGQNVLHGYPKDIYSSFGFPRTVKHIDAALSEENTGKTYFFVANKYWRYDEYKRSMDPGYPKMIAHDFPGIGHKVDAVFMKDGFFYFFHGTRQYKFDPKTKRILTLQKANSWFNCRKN

[1] = aggrecanase-1 inhibitory action, read-out: IC50 AG1 (Experimental Example 1)
[2] = Recombinant Human MMP-13, fluorescent substrate, 25° C. for 1 h, read-out: IC50 MMP13 (Experimental Example 3)
[3] = MMP-1 inhibitory action, FITC-labeled collagen type I, 37° C. for 3 hr, read-out: IC50 MMP1 (Experimental Example 2)
[4] = Experimental Example 1, read-out: IC50 AG1
[5] = Experimental Example 3, read-out: IC50 MMP13
[6] = Experimental Example 2, read-out: IC50 MMP1

Row | SMILES | IC50 (aggrecanase-1; [1]) | IC50 (Recombinant Human MMP-13; [2]) | IC50 (MMP-1; [3]) | IC50 (aggrecanase-1; [4]) | IC50 (Recombinant Human MMP-13; [5]) | IC50 (MMP-1; [6])
1 | O=C(c1cccc(Cl)c1)N1CCN(S(=O)(=O)NC2(C(=O)O)CC2c2ccccc2)CC1 (stereo not drawn) [Example 2-160] | ≥ 10000 nM | ≥ 10000 nM | ≥ 10000 nM | – | – | –
2 | O=C(O)[C@]1(NS(=O)(=O)c2ccc(-c3cc(C(F)F)on3)cc2)C[C@@H]1c1ccccc1 [Example 2-152] | < 1000 nM | < 100 nM | ≥ 10000 nM | – | – | –
3 | CN(C)C(=O)CSCC1(c2ccccc2)CC1(NS(=O)(=O)c1ccc(-c2ccc(Cl)cc2)s1)C(=O)O (stereo not drawn) [Example 2-357] | – | – | – | < 100 nM | < 100 nM | ≥ 1000 nM
4 | CC1[C@H](c2ccccc2)[C@]1(NS(=O)(=O)c1ccc(-n2cc(C(F)(F)F)cn2)nc1)C(=O)O (stereo partly drawn) [Example 2-556] | – | – | – | ≥ 1000 nM | < 100 nM | ≥ 1000 nM
5 | CCOC(=O)NCC1(c2ccccc2)CC1(NS(=O)(=O)c1ccc(-c2ccc(Cl)cc2)s1)C(=O)O (stereo not drawn) [Example 2-384] | – | – | – | < 1000 nM | < 100 nM | ≥ 10000 nM
6 | O=C(O)[C@]1(NS(=O)(=O)/C=C/c2cccc(C(F)(F)F)c2)C[C@@H]1c1ccccc1 [Example 2-162] | ≥ 10000 nM | ≥ 10000 nM | ≥ 10000 nM | – | – | –
7 | C[C@]1(c2ccccc2)C[C@@]1(NS(=O)(=O)c1ccc(-c2ncc(Br)cn2)s1)C(=O)O [Example 2-414] | – | – | – | < 1000 nM | < 1000 nM | ≥ 1000 nM
8 | O=C(CN1CCOCC1)Nc1cccc(C2CC2(NS(=O)(=O)c2ccc(-c3ccc(Cl)cc3)s2)C(=O)O)c1 (stereo not drawn) [Example 2-261] | < 1000 nM | < 1000 nM | ≥ 10000 nM | – | – | –
